Data: the supplement of paper PMC10307832

Tests used:
Assay in all cases: relative viability (nuclei count vs DMSO), 5 days (fraction); higher = more cells survive
[1] = compound: CN1CCN(CC1)C2=CC(=C(C=C2)NC3=NC(=C(S3)C(=O)C4=C(C=CC=C4Cl)Cl)N)OC [XMD14-99] + CS(=O)(=O)CCNCc1ccc(-c2ccc3ncnc(Nc4ccc(OCc5cccc(F)c5)c(Cl)c4)c3c2)o1 [Lapatinib] (partner 2 µM)
Summary of the method: (§1)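 One day after seeding in 1536-well plates, lung cancer cell lines were dosed by pin tool. Dosing was either single-drug or a fixed anchor-drug dose plus five library-drug doses (not always all listed) in √10 steps. After 5 days, nuclei were stained in one fix-and-stain step and counted on 4× images, and relative viability is the nuclei count of treated wells over that of vehicle wells, given as the median of duplicate plates.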

[2] = compound: N[C@@H]1CCCN(c2c(/C=C3\SC(=O)NC3=O)cccc2-c2ccccc2)C1 [AZD1208] + Cc1cc(Nc2cc(N3CCN(C)CC3)nc(Sc3ccc(NC(=O)C4CC4)cc3)n2)n[nH]1 [Tozasertib] (partner 0.1 µM)
Summary of the method: as §1

[3] = compound: N[C@@H]1CCCN(c2c(/C=C3\SC(=O)NC3=O)cccc2-c2ccccc2)C1 [AZD1208] + Nc1ncn([C@H]2C[C@H](O)[C@@H](CO)O2)c(=O)n1 [Decitabine] (partner 2 µM)
Summary of the method: as §1

[4] = compound: CN1CCN(CC1)C2=CC(=C(C=C2)NC3=NC(=C(S3)C(=O)C4=C(C=CC=C4Cl)Cl)N)OC [XMD14-99] + O=C(c1cc(Cc2n[nH]c(=O)c3ccccc23)ccc1F)N1CCN(C(=O)C2CC2)CC1 [Olaparib] (partner 8 µM)
Summary of the method: as §1

Cell Line | relative viability ([1]; first compound 0.08 µM) | relative viability ([1]; first compound 0.8 µM) | relative viability ([1]; first compound 2.53 µM) | relative viability ([1]; first compound 8 µM) | relative viability ([2]; first compound 0.08 µM) | relative viability ([2]; first compound 0.253 µM) | relative viability ([2]; first compound 0.8 µM) | relative viability ([2]; first compound 2.53 µM) | relative viability ([2]; first compound 8 µM) | relative viability ([3]; first compound 0.08 µM) | relative viability ([3]; first compound 0.253 µM) | relative viability ([3]; first compound 0.8 µM) | relative viability ([3]; first compound 2.53 µM) | relative viability ([3]; first compound 8 µM) | relative viability ([4]; first compound 0.08 µM) | relative viability ([4]; first compound 0.8 µM) | relative viability ([4]; first compound 2.53 µM) | relative viability ([4]; first compound 8 µM)
201T | 1.02 | 1.05 | 1 | 0.936 | 0.959 | 0.934 | 0.865 | 0.803 | 0.649 | 0.886 | 0.868 | 0.855 | 0.97 | 0.893 | 0.861 | 0.799 | 0.776 | 0.695
A549 | 0.857 | 0.923 | 0.983 | 0.685 |  |  |  |  |  | 0.238 | 0.301 | 0.218 | 0.314 | 0.17 | 0.471 | 0.377 | 0.311 | 0.27
A-427 | 1.14 | 0.984 | 0.999 | 0.898 | 0.196 | 0.195 | 0.212 | 0.18 | 0.185 | 0.541 | 0.568 | 0.528 | 0.508 | 0.448 | 0.793 | 0.628 | 0.67 | 0.501
ABC-1 | 1.05 | 1.18 | 1.17 | 1.05 | 0.168 | 0.155 | 0.214 | 0.192 | 0.192 | 0.926 | 1.07 | 0.992 | 0.989 | 0.821 | 0.696 | 1.03 | 0.737 | 0.673
BEN | 0.738 | 0.825 | 0.661 | 0.627 | 0.507 | 0.414 | 0.385 | 0.374 | 0.435 | 0.779 | 0.577 | 0.653 | 0.653 | 0.564 | 0.979 | 1.06 | 0.786 | 0.773
CAL-12T | 0.603 | 0.549 | 0.545 | 0.547 | 0.35 | 0.355 | 0.322 | 0.323 | 0.271 |  |  |  |  |  | 0.674 | 0.785 | 0.671 | 0.607
COR-L23 | 0.906 | 0.924 | 0.931 | 0.517 | 0.152 | 0.174 | 0.187 | 0.182 | 0.171 | 0.439 | 0.502 | 0.412 | 0.396 | 0.395 | 0.345 | 0.298 | 0.298 | 0.193
COR-L 105 | 0.404 | 0.293 | 0.354 | 0.32 | 0.35 | 0.384 | 0.376 |  | 0.348 | 0.734 | 0.672 | 0.633 | 0.628 | 0.538 | 0.657 | 0.699 | 0.682 | 0.621
Calu-6 | 0.996 | 0.934 | 0.936 | 0.735 |  |  |  |  |  |  |  |  |  |  | 0.524 | 0.529 | 0.502 | 0.472
ChaGo-K-1 |  |  |  |  | 0.216 | 0.202 | 0.193 | 0.218 | 0.183 | 0.522 | 0.509 | 0.399 | 0.481 | 0.465 | 0.473 | 0.438 | 0.403 | 0.292
EBC-1 | 0.252 | 0.207 | 0.2 | 0.173 |  |  |  |  |  |  |  |  |  |  | 0.771 | 0.635 | 0.646 | 0.382
EKVX | 0.187 | 0.18 | 0.193 | 0.163 | 0.444 | 0.462 | 0.376 | 0.388 | 0.262 | 0.286 | 0.356 | 0.327 | 0.351 | 0.344 | 0.763 | 0.837 | 0.904 | 0.73
EMC-BAC-2 | 0.87 | 0.905 | 0.859 | 0.724 | 0.28 | 0.298 | 0.28 | 0.25 | 0.222 | 0.932 | 0.94 | 0.903 | 0.992 | 0.812 | 0.507 | 0.483 | 0.443 | 0.422
EPLC-272H | 0.927 | 0.943 | 0.924 | 0.846 | 0.231 | 0.351 | 0.263 | 0.149 | 0.197 | 0.412 | 0.342 | 0.392 | 0.364 | 0.368 | 0.711 | 0.809 | 0.802 | 0.422
H3255 | 0.234 | 0.252 | 0.326 | 0.164 | 0.664 | 0.675 | 0.534 | 0.58 | 0.689 | 0.689 | 0.714 | 0.56 | 0.589 | 0.523 | 0.577 | 0.507 | 0.491 | 0.343
HARA | 0.701 | 1.03 | 0.647 | 0.362 | 0.11 | 0.0998 | 0.111 | 0.0918 | 0.0796 | 0.767 | 0.578 | 0.486 | 0.536 | 0.545 | 0.816 | 0.999 | 0.589 | 0.491
HCC-15 | 0.867 | 0.894 | 0.792 | 0.611 | 0.362 | 0.306 | 0.241 | 0.186 | 0.184 | 0.612 | 0.624 | 0.491 | 0.576 | 0.575 | 0.688 | 0.661 | 0.706 | 0.441
HCC-44 | 1.12 | 0.951 | 1.09 | 0.861 | 0.876 | 1.04 | 0.877 | 0.896 | 0.866 | 0.98 | 0.907 | 0.939 | 0.995 | 0.916 | 1.08 | 1.01 | 1.01 | 0.956

Cell Line | relative viability ([1]; first compound 0.08 µM) | relative viability ([1]; first compound 0.8 µM) | relative viability ([1]; first compound 2.53 µM) | relative viability ([1]; first compound 8 µM) | relative viability ([2]; first compound 0.08 µM) | relative viability ([2]; first compound 0.253 µM) | relative viability ([2]; first compound 0.8 µM) | relative viability ([2]; first compound 2.53 µM) | relative viability ([2]; first compound 8 µM) | relative viability ([3]; first compound 0.08 µM) | relative viability ([3]; first compound 0.253 µM) | relative viability ([3]; first compound 0.8 µM) | relative viability ([3]; first compound 2.53 µM) | relative viability ([3]; first compound 8 µM) | relative viability ([4]; first compound 0.08 µM) | relative viability ([4]; first compound 0.8 µM) | relative viability ([4]; first compound 2.53 µM) | relative viability ([4]; first compound 8 µM)
HCC-78 | 0.911 | 0.751 | 0.858 | 0.648 | 0.456 | 0.412 | 0.437 | 0.288 | 0.256 | 0.685 | 0.629 | 0.646 | 0.704 | 0.697 | 0.716 | 0.799 | 0.724 | 0.589
HCC-366 | 1.06 | 1.06 | 1.13 | 0.854 | 0.118 | 0.125 | 0.12 | 0.098 | 0.0502 | 0.315 | 0.354 | 0.312 | 0.386 | 0.333 | 0.375 | 0.344 | 0.315 | 0.243
HCC-827 | 0.182 | 0.205 | 0.188 | 0.197 | 0.445 | 0.409 | 0.412 | 0.385 | 0.401 | 0.435 | 0.327 | 0.281 | 0.341 | 0.335 | 0.596 | 0.632 | 0.622 | 0.491
HOP-62 | 1.22 | 1.06 | 0.946 | 0.819 | 0.372 | 0.302 | 0.372 | 0.287 | 0.263 | 0.231 | 0.212 | 0.22 | 0.254 | 0.24 | 0.536 | 0.634 | 0.501 | 0.312
IA-LM | 0.821 | 0.603 | 0.511 | 0.301 |  |  |  |  |  |  |  |  |  |  | 0.943 | 0.691 | 0.68 | 0.352
LC-2-ad | 0.955 | 0.926 | 0.908 | 0.764 | 0.397 | 0.381 | 0.355 | 0.363 | 0.318 | 0.79 | 0.8 | 0.781 | 0.879 | 0.79 | 0.687 | 0.707 | 0.628 | 0.498
LCLC-103H |  |  |  |  | 0.51 | 0.425 | 0.457 | 0.481 | 0.373 | 0.715 | 0.654 | 0.707 | 0.723 | 0.743 | 0.764 | 0.779 | 0.752 | 0.657
NCI-H441 |  |  |  |  | 0.641 | 0.555 | 0.57 | 0.508 | 0.375 | 0.205 | 0.298 | 0.291 | 0.224 | 0.264 | 0.526 | 0.519 | 0.529 | 0.455
NCI-H522 |  |  |  |  | 0.534 | 0.619 | 0.492 | 0.514 | 0.446 | 0.678 | 0.634 | 0.73 | 0.643 | 0.636 | 0.586 | 0.808 | 0.594 | 0.557
NCI-H1299 | 0.924 | 0.925 | 0.925 | 0.813 |  |  |  |  |  |  |  |  |  |  | 0.929 | 0.969 | 0.935 | 0.742
NCI-H1563 | 0.85 | 1.1 | 0.906 | 0.824 |  |  |  |  |  |  |  |  |  |  |  |  |  | 
NCI-H1623 |  |  |  |  | 0.456 | 0.394 | 0.403 | 0.426 | 0.393 |  |  |  |  |  |  |  |  | 
NCI-H1648 |  |  |  |  | 0.599 | 0.462 | 0.346 | 0.33 | 0.389 | 0.631 | 0.476 | 0.464 | 0.547 | 0.567 | 0.95 | 0.433 | 0.654 | 0.316
NCI-H1703 | 0.9 | 0.976 | 0.972 | 0.793 |  |  |  |  |  |  |  |  |  |  | 0.492 | 0.456 | 0.622 | 0.269
NCI-H1792 | 0.995 | 0.89 | 0.912 | 0.536 |  |  |  |  |  | 0.624 | 0.538 |  | 0.505 | 0.468 | 0.486 | 0.383 | 0.265 | 0.0886
NCI-H2228 | 0.952 | 0.9 | 0.811 | 0.291 | 0.258 | 0.165 | 0.168 | 0.172 | 0.108 |  |  |  |  |  | 0.776 | 0.603 | 0.706 | 0.273
NCI-H2342 |  |  |  |  | 0.454 | 0.499 | 0.453 | 0.418 | 0.421 | 0.772 | 0.736 | 0.595 | 0.674 | 0.581 | 0.548 | 0.459 | 0.484 | 0.409
SW 900 |  |  |  |  | 0.535 | 0.56 | 0.528 | 0.552 | 0.428 | 0.456 | 0.407 | 0.382 | 0.395 | 0.444 | 0.831 | 0.845 | 0.766 | 0.525
